{
  "source": "patent US9528090B2",
  "about": "“Differentiation of human embryonic stem cells” (Janssen Biotech, Inc., priority 2010, dated 2016)",
  "key": {"[1]": {"tested_on": "human embryonic stem cells line H1", "test": "Definitive endoderm differentiation of H1 cells, single cell seeding (GDF8/GSK3B inhibitor, MCDB-131): FACS for CXCR4 and CD9", "format": "cell-based", "details": "for % CXCR4 + CD9− / % CXCR4 − CD9+ / % CXCR4 − CD9−: day 4", "method": "Cells of the human embryonic stem cells line H1 (p40-p52) were seeded as single cells at a density of 100000 cells/cm^2 on MATRIGEL® (1:30 dilution) (BD Biosciences; Cat #356231)-coated dishes in MEF-CM (mouse embryonic fibroblast conditioned media) supplemented with 16 ng/ml of FGF2 (Catalog#100-18B, PeproTech, NJ) and 10 μM of Y27632 (Rock inhibitor, Catalogue#Y0503, Sigma, Mo.). 72 hrs post seeding, cultures were differentiated into definitive endoderm (DE) as follows: • a. […] MCDB-131 medium supplemented with 2% BSA, sodium bicarbonate, Glutamax, and 100 ng/ml GDF-8 for an additional three days. In some of the cultures, the cells were treated with the following concentrations of IGF (Catalogue#AF100, PeproTech, NJ): 0, 1, 10, 50, or 200 ng/ml. As a control, instead of BSA, 0.2% FBS (Catalogue#SH30070.03, Hyclone, UT) was used for day 1 of differentiation, and 2% FBS was used for days 2-4. Some of the FBS treated cultures were also treated with various concentrations of IGF. At day 4, samples were collected for FACS and gene expression analysis using real-time PCR."}, "ES cells": {"tested_on": "ES cells", "details": "25 ng/ml of IGF added to 2% FBS, MEF-CM, activin A; cited from earlier work"}, "[2]": {"tested_on": "human embryonic stem cells line H1", "test": "Definitive endoderm differentiation of H1 cells in FBS medium (GDF8/GSK3B inhibitor) with IGF or insulin: FACS and real-time PCR", "format": "cell-based", "details": "in the presence of FBS, 10-100 ng/ml, day 4", "method": "Cells of the human embryonic stem cells line H1 (p40-p52) were seeded as single cells at a density of 100000 cells/cm^2 on MATRIGEL® (1:30 dilution) (BD Biosciences; Cat #356231)-coated dishes in MEF-CM (mouse embryonic fibroblast conditioned media) supplemented with 16 ng/ml of FGF2 (Catalog#100-18B, PeproTech, NJ) and 10 μM of Y27632 (Rock inhibitor, Catalogue#Y0503, Sigma, Mo.). 72 hrs post seeding, cultures were differentiated into definitive endoderm (DE) as follows: • a. with MCDB-131 (Catalogue#10372-019, Invitrogen, CA) medium supplemented with 0.2% FBS (Catalogue#SH30070.03, Hyclone, UT), 0.0025 g/ml sodium bicarbonate (Catalogue #S3187, Sigma, Mo.), 1× GlutaMax™ (Catalogue #35050-079, Invitrogen, Ca) and 100 ng/ml GDF8 (Catalogue#120-00, PeproTech, NJ) plus 2.5 μM of the GSK3B inhibitor 14-Prop-2-en-1-yl-3,5,7,14,17,23,27-heptaazatetracyclo[19.3.1.1˜2,6˜0.1˜8,12˜]heptacosa-1(25),2(27),3,5,8(26),9,11,21,23-nonaen-16-one for one day, then • b. MCDB-131 medium supplemented with FBS, sodium bicarbonate, Glutamax, and 100 ng/ml GDF8 for an additional three days.\n0.5% FBS was used for day 2 and 2% FBS was used for days 3-4. Besides regular FBS, heat treated FBS (Catalogue#F4135, Sigma, Mo.) and charcoal stripped treated FBS (Catalogue#F6765, Sigma, Mo.) were also tested. Some of the FBS treated cultures were also treated with various concentrations of IGF (10-100 ng/ml) or insulin (10-100 ng/ml).\nAt day 4, samples were collected for analysis by FACS and real-time PCR."}, "[3]": {"tested_on": "human embryonic stem cells line H1", "test": "Definitive endoderm differentiation of H1 cells, single cell seeding (GDF8/GSK3B inhibitor): real-time PCR gene expression", "format": "cell-based", "method": "Cells of the human embryonic stem cells line H1 (p40-p52) were seeded as single cells at a density of 100000 cells/cm^2 on MATRIGEL® (1:30 dilution) (BD Biosciences; Cat #356231)-coated dishes in MEF-CM (mouse embryonic fibroblast conditioned media) supplemented with 16 ng/ml of FGF2 (Catalog#100-18B, PeproTech, NJ) and 10 μM of Y27632 (Rock inhibitor, Catalogue#Y0503, Sigma, Mo.). 72 hrs post seeding, cultures were differentiated into definitive endoderm (DE) as follows: • a. MCDB-131 (Catalogue#10372-019, Invitrogen, CA) medium supplemented with 2% fatty acid-free BSA (Catalog#68700, Proliant, IA), 0.0025 g/ml sodium bicarbonate (Catalogue #S3187, Sigma, Mo.), 1× GlutaMax™ (Catalogue #35050-079, Invitrogen, Ca) and 100 ng/ml GDF8 (Catalogue#120-00, PeproTech, NJ) plus 2.5 μM of the GSK3B inhibitor 14-Prop-2-en-1-yl-3,5,7,14,17,23,27-heptaazatetracyclo [19.3.1.1˜2,6˜0.1˜8,12˜]heptacosa-1(25),2(27),3,5,8(26),9,11,21,23-nonaen-16-one for one day, then • b. MCDB-131 medium supplemented with 2% BSA, sodium bicarbonate, Glutamax, and 100 ng/ml GDF-8 for an additional three days.\nIn some of the cultures, the cells were treated with the following concentrations of IGF (Catalogue#AF100, PeproTech, NJ): 0, 1, 10, 50, or 200 ng/ml. As a control, instead of BSA, 0.2% FBS (Catalogue#SH30070.03, Hyclone, UT) was used for day 1 of differentiation, and 2% FBS was used for days 2-4. Some of the FBS treated cultures were also treated with various concentrations of IGF.\nAt day 4, samples were collected for FACS and gene expression analysis using real-time PCR.\nCultures treated with medium supplemented with FBS were much more sensitive to the inhibitory effect of IGF. […] These observations was further supported by immuno fluorescence (IF) staining for the DE marker SOX17 (Catalogue #AF 1924, R & D systems, MN) (FIGS. 8-9)."}, "[4]": {"details": "IGF 50-200 ng/ml, BSA treated cultures"}},
  "data": [
    {"substance": "IGF", "values": [
      {"measurement": "% CXCR4 + CD9−", "setting": "[1]; BSA + 1 ng/ml IGF", "result": 92, "unit": "%"},
      {"measurement": "% CXCR4 − CD9+", "setting": "[1]; BSA + 1 ng/ml IGF", "result": 0.8, "unit": "%"},
      {"measurement": "% CXCR4 − CD9−", "setting": "[1]; BSA + 1 ng/ml IGF", "result": 3, "unit": "%"},
      {"measurement": "% CXCR4 + CD9−", "setting": "[1]; BSA + 10 ng/ml IGF", "result": 90, "unit": "%"},
      {"measurement": "% CXCR4 − CD9+", "setting": "[1]; BSA + 10 ng/ml IGF", "result": 1.3, "unit": "%"},
      {"measurement": "% CXCR4 − CD9−", "setting": "[1]; BSA + 10 ng/ml IGF", "result": 5.3, "unit": "%"},
      {"measurement": "% CXCR4 + CD9−", "setting": "[1]; BSA + 50 ng/ml IGF", "result": 87, "unit": "%"},
      {"measurement": "% CXCR4 − CD9+", "setting": "[1]; BSA + 50 ng/ml IGF", "result": 6, "unit": "%"},
      {"measurement": "% CXCR4 − CD9−", "setting": "[1]; BSA + 50 ng/ml IGF", "result": 3.5, "unit": "%"},
      {"measurement": "% CXCR4 + CD9−", "setting": "[1]; BSA + 200 ng/ml IGF", "result": 79, "unit": "%"},
      {"measurement": "% CXCR4 − CD9+", "setting": "[1]; BSA + 200 ng/ml IGF", "result": 10, "unit": "%"},
      {"measurement": "% CXCR4 − CD9−", "setting": "[1]; BSA + 200 ng/ml IGF", "result": 8, "unit": "%"},
      {"measurement": "% CXCR4 + CD9−", "setting": "[1]; FBS + 1 ng/ml IGF", "result": 89, "unit": "%"},
      {"measurement": "% CXCR4 − CD9+", "setting": "[1]; FBS + 1 ng/ml IGF", "result": 3, "unit": "%"},
      {"measurement": "% CXCR4 − CD9−", "setting": "[1]; FBS + 1 ng/ml IGF", "result": 3.6, "unit": "%"},
      {"measurement": "% CXCR4 + CD9−", "setting": "[1]; FBS + 10 ng/ml IGF", "result": 87, "unit": "%"},
      {"measurement": "% CXCR4 − CD9+", "setting": "[1]; FBS + 10 ng/ml IGF", "result": 6.4, "unit": "%"},
      {"measurement": "% CXCR4 − CD9−", "setting": "[1]; FBS + 10 ng/ml IGF", "result": 3.3, "unit": "%"},
      {"measurement": "% CXCR4 + CD9−", "setting": "[1]; FBS + 50 ng/ml IGF", "result": 78, "unit": "%"},
      {"measurement": "% CXCR4 − CD9+", "setting": "[1]; FBS + 50 ng/ml IGF", "result": 6.8, "unit": "%"},
      {"measurement": "% CXCR4 − CD9−", "setting": "[1]; FBS + 50 ng/ml IGF", "result": 13.2, "unit": "%"},
      {"measurement": "% CXCR4 + CD9−", "setting": "[1]; FBS + 200 ng/ml IGF", "result": 70, "unit": "%"},
      {"measurement": "% CXCR4 − CD9+", "setting": "[1]; FBS + 200 ng/ml IGF", "result": 13.4, "unit": "%"},
      {"measurement": "% CXCR4 − CD9−", "setting": "[1]; FBS + 200 ng/ml IGF", "result": 12.9, "unit": "%"},
      {"measurement": "CXCR4+CD9− cells", "setting": "[1]; [4]", "result": "drop in expression"},
      {"measurement": "CXCR4−CD9+ fraction", "setting": "[1]; [4]", "result": "increase in expression"},
      {"measurement": "CXCr4+CD9− fraction", "setting": "[1]; increasing doses of IGF, FBS treated versus BSA treated cultures", "result": "more significant drop"},
      {"measurement": "decrease of the expression of SOX17", "setting": "ES cells", "result": "approximately 70%"},
      {"measurement": "expression of the pluripotency marker NANOG", "setting": "[2]", "result": "upregulated"},
      {"measurement": "markers associated with definitive endoderm such as SOX17 and CCXR4", "setting": "[2]", "result": "dose dependently down regulated"},
      {"measurement": "expression of markers associated with definitive endoderm (FOXA2, SOX17, CER1, CXCR4)", "setting": "[3]; 1-200 ng/ml of IGF, BSA treated cultures, versus no IGF", "result": "did not significantly affect"},
      {"measurement": "expression of the embryonic marker NANOG", "setting": "[3]; 50-200 ng/ml of IGF", "result": "did increase expression"},
      {"measurement": "expression of SOX17, HNF3B and CXCR4", "setting": "[3]; FBS supplemented cultures, increasing IGF", "result": "decreased with increasing concentration"}
    ]}
  ]
}
